We go through two compounds from US10913721B2, “Crystalline form of aripiprazole” (Noratech Pharmaceuticals, Inc., priority 2016, dated 2021).

Entries after “also recorded” stand apart in the source; their conditions may differ.

Series [1] in a line: Comparison test for the dissolution rate of crystalline forms of aripiprazole. It is filed as physicochemical. The note with it: 0.25% sodium dodecyl sulfate solution (900 mL), slurry method, 50 rpm, 37° C.±0.5° C.; 15-360 min; compared with hydrate A and the conventional hydrate (FIG. 7). On the procedure:
Sample preparation: Powders of crystalline form N, hydrate A and the conventional hydrate of aripiprazole are respectively sieved through a 100-mesh sieve, and the appropriate amount of sieved material (equivalent to 50 mg of aripiprazole) is taken and measured to determine the dissolution rate of each sample.
Dissolution conditions: 0.25% sodium dodecyl sulfate solution (900 mL): slurry method: 50 rpm; 37° C.±0.5° C.
Sample detection: Samples of 3 ml are respectively taken at 15, 30, 60, 90, 120, 240, and 360 min, and immediately littered through a 0.45 μm microporous membrane, 2 mL of the initial filtrate is discarded, and the drug concentration in the subsequent filtrate is measured.

For series [2] the following is noted: as stated in WO 03/026659; cited from earlier work.

`O=C1CCc2ccc(OCCCCN3CCN(c4cccc(Cl)c4Cl)CC3)cc2N1` [Crystalline form N, 7-{4-[4-(2,3-dichlorophenyl)-1-piperazinyl]-butoxy}-3,4-dihydroquinolone]: the “dissolution rate (release rate)” value in series [1] was “slower release rate; also recorded: slower dissolution rate”.

Regarding `O=C1CCc2ccc(OCCCCN3CCN(c4cccc(Cl)c4Cl)CC3)cc2N1` [type-I crystals], in series [2], the hygroscopicity entry is recorded as “significant hygroscopicity”.
